Assay results: patent US8642633B2, “Di-substituted amides for enhancing glutamatergic synaptic responses” (Cortex Pharmaceutical, Inc., priority 2007, dated 2014)

Legend:
[1] = test system: d-amphetamine stimulated locomotion in mice; experiment: Inhibition of d-amphetamine stimulated locomotion; assay type: in vivo; settings: Mus musculus, ip, 18 mpk i.p., d-amphetamine 2 mg/kg
Description: B. Behavioral Testing: Inhibition of d-Amphetamine Stimulated Locomotion
The ability of the invention compounds to inhibit d-Amphetamine stimulated locomotor activity was assayed according to the following procedure. Male CD1 mice, 25-30 gm body weight, were brought into the experimental room and allowed at least 30 min of acclimation. Each mouse was placed into the testing enclosure with an infrared beam array that automatically monitors the animal's activity. Mice were habituated in the testing enclosure for 20 min, and then returned to their home cage. Mice were dosed intraperitoneally with test compound in appropriate vehicle 5 minutes before d-Amphetamine injection (2 mpk). Ten minutes after d-Amphetamine injection, mice were tested for locomotor activity for a total of […]. The data was computer collected and expressed as “arbitrary movement units.” All data were analyzed by comparing the groups treated with the test compound to the vehicle control group. The data shown is the % inhibition of hyperactivity induced by acute administration of 2 mg/kg d-amphetamine in mice. The compounds tested produced a statistically significant inhibition of d-amphetamine stimulated locomotion.
Male CD1 mice, 25-30 gm body weight, were brought into the experimental room and allowed at least 30 min of acclimation. Each mouse was placed into the testing enclosure with an infrared beam array that automatically monitors the animal's activity. Mice were habituated in the testing enclosure for 20 min, and then returned to their home cage. Mice were dosed intraperitoneally with test compound in appropriate vehicle 5 minutes before d-Amphetamine injection. Ten minutes after d-Amphetamine injection, mice were tested for locomotor activity for a total of 15 minutes. The data was computer collected and expressed as “arbitrary movement units.” All data were analyzed by comparing the groups treated with the test compound to the vehicle control group.

AMPA receptor = experiment: In vivo electrophysiology: field EPSP amplitude in the dentate gyrus of anesthetized animals; design: species or system rat; settings: rat, 10mpk i.p.
Description: A. Enhancement of AMPA Receptor Function In Vivo.
Synaptic responses mediated by AMPA receptors are increased according to the method of the invention, using the compounds described herein.
(§1) The electrophysiological effects of the invention compounds were tested in vivo in anesthetized animals according to the following procedures. Animals are maintained under anesthesia by phenobarbital administered using a Hamilton syringe pump. Stimulating and recording electrodes are inserted into the perforant path and dentate gyrus of the hippocampus, respectively. Once electrodes are implanted, a stable baseline of evoked responses are elicited using single monophasic pulses (100 μs pulse duration) delivered at 3/min to the stimulating electrode. Field EPSPs are monitored until a stable baseline is achieved (about 20-30 min), after which a solution of test compound is injected intraperitoneally and evoked field potentials are recorded. Evoked potentials were recorded for approximately 2 h following drug administration or until the amplitude of the field EPSP returns to baseline. In the latter instance, it is common that an iv administration is also carried out with an appropriate dose of the same test compound. Invention compounds were assayed in the in vivo electrophysiology assay described above and data for representative test compounds is shown in column 1 in Table 1.
The electrophysiological effects of invention compounds were tested in vivo in anesthetized animals according to the following procedures.
as §1, with “Animals” for “The electrophysiological effects of the invention compounds were tested in vivo in anesthetized animals according to the following procedures. Animals”, “are” for “were”, “compound.” for “compound. Invention compounds were assayed in the in vivo electrophysiology assay described above and data for representative test compounds is shown in column 1 in Table 1.”

In the case of `CN(C(=O)c1ccc2nonc2c1)C1CCC(=O)CC1` [Example 37, N-Methyl-N-(4-oxocyclohexyl)-[2,1,3]-benzoxadiazole-5-carboxamide], the inhibition in vivo at 18 mg/kg [1] is reported as 100%, the melting point is reported as 183 to 184 °C and the “In vivo Electrophysiology: % increase in the amplitude of the field EPSP in the dentate gyrus of rat” value (AMPA receptor) is reported as 18%.
For `CN(C(=O)c1ccc2nonc2c1)C1CC=C(F)CC1` (stereo not drawn) [Example 41, N-(4-fluorocyclohex-3-en-1-yl)-N-methyl-[2,1,3]-benzoxadiazole-5-carboxamide], the inhibition in vivo at 18 mg/kg [1] was 67%, the melting point was 117 to 118 °C and the “In vivo Electrophysiology: % increase in the amplitude of the field EPSP in the dentate gyrus of rat” value (AMPA receptor) was 18%.
